Assay results published in article PMC4117522, “Proteasome Inhibitors Alter Levels of Intracellular Peptides in HEK293T and SH-SY5Y Cells” (PLoS ONE, 2014).

How the values were obtained:
[1] = target: T1, proteasome (beta 5, chymotrypsin-like activity) in HEK293T cell extract (Homo sapiens, UniProt P20618+P28074); experiment: Proteasome activity in HEK293T cell extracts with beta 5-selective substrate Suc-Leu-Leu-Val-Tyr-AMC; assay type: biochemical
T1 construct: endogenous in cells; host or cells: HEK293T
Experimental: (§1) All enzyme assays described below were performed in the linear range of the assay, as determined from time-course studies. HEK293T cells were lysed by sonication in 50 mM TrisHCl buffer, pH 7.5, containing 40 mM KCl, 5 mM MgCl2, 0.5 mM ATP, and 1 mM DTT (Buffer 1).
To measure proteasome activity, a 1∶50 dilution of the cell extract was pre-incubated with the inhibitor and Buffer 1 for 30 min, followed by addition of 100 µM final concentration of the proteasome substrate succinyl-Leu-Leu-Val-Tyr-7-amino-4-methylcoumarin (Suc-Leu-Leu-Val-Tyr-AMC). After incubation at 37°C for 1 hour, proteasomal activity was quantified by fluorescence measurement of the substrate (380 nm excitation, 460 nm emission).
Figure 2 Inhibition of proteasome activity in HEK293T cells with various proteasome inhibitors. HEK293T cell extract was treated with increasing concentrations of the indicated compound for […] and incubation for 1 hour […]. Enzyme activity was determined by fluorescence measurement of AMC. The resulting activity is expressed as percent enzyme activity relative to the control reaction without inhibitor.

[2] = test system: HEK293T cell aminopeptidase activity (Ala-AMC cleavage); experiment: Aminopeptidase assay with Ala-AMC in HEK293T cell extracts; assay type: biochemical, human; details: HEK293T cell extract, 10 µM inhibitor
Experimental: as §1
(§2) To measure TPP2, the fluorescent substrate was Ala-Ala-Phe-AMC. Aminopeptidase (AP) assays were performed with Leu-AMC and Ala-AMC, which detect leucine aminopeptidase (LAP), puromycin-sensitive aminopeptidase (PSAP), and other enzymes. To measure the effect of aminopeptidase/proteasome inhibitors on cleavage of Ala-Ala-Phe-AMC and Leu-AMC, 1∶50 dilution of the cell extract was pre-incubated with the inhibitor and Buffer 1 for 30 min, followed by addition of 100 µM final concentration of the respective substrate. For Ala-AMC, the same dilution of the cell extract was pre-incubated with the inhibitor and 50 mM MOPS buffer, pH 7.5, containing 40 mM KCl, 5 mM MgCl2, 0.5 mM ATP, and 1 mM DTT (Buffer 2), followed by addition of 100 µM final concentration of the substrate. After incubation at 37°C for 1 hour, enzyme activity was quantified by fluorescence measurement of the substrate (380 nm excitation, 460 nm emission).
(§3) Figure 7 Effect of aminopeptidase inhibitors on Ala-AMC and Leu-AMC cleavage. HEK 293T cell extract (panels A–D) or recombinant PSAP (panels E–F) were treated with increasing concentrations of bestatin or puromycin for 30 minutes followed by the addition of substrate and incubation for 1 hour. Enzyme activity was determined by fluorescence measurement of AMC and expressed as percentage enzyme activity relative to the control without inhibitor. (A) Bestatin inhibition of HEK293T cell extract assayed with Ala-AMC. (B) Bestatin inhibition of HEK293T cell extract assayed with Leu-AMC. (C) Puromycin inhibition of HEK293T cell extract assayed with Ala-AMC. (D) Puromycin inhibition of HEK293T cell extract assayed with Leu-AMC. (E) Puromycin inhibition of purified PSAP assayed with Ala-AMC. (F) Puromycin inhibition of purified PSAP assayed with Leu-AMC. Error bars show standard error of mean (n = 4), points without error bars had error ranges smaller than the symbol size. Statistical analysis was performed using Student’s t-test: *, p≤0.05; **, p≤0.01; ***, p≤0.001; ns, no significant difference (p>0.05) versus the control.
(§4) Figure 8 Effect of proteasome inhibitors on Ala-AMC and Leu-AMC cleavage. HEK 293T cell extract or recombinant PSAP was treated with 10 µM of each of the proteasome inhibitors for 1 hour in addition to a 30 min pre-incubation without the substrate. Enzyme activity was determined by fluorescence measurement of AMC and expressed as percentage enzyme activity relative to the control without inhibitor. Panels A and B represent the effect of proteasome inhibitors on cleavage of Ala-AMC and Leu-AMC respectively, in HEK293T cell extract. […] Error bars show standard error of mean (n = 4). Statistical analysis was performed using Student’s t-test: *, p≤0.05; **, p≤0.01; ***, p≤0.001; ns, no significant difference (p>0.05) versus the control.

[3] = test system: HEK293T cell aminopeptidase activity (Leu-AMC cleavage); experiment: Aminopeptidase assay with Leu-AMC in HEK293T cell extracts; assay type: biochemical, human; details: HEK293T cell extract, 10 µM inhibitor
Experimental: as §1, §2, §3, §4

With `CN1C/C(=C/c2ccc(B(O)O)cc2)C(=O)/C(=C\c2ccc(B(O)O)cc2)C1` [AM114, reference compound] the “potency relative to clasto-Lactacystin β-lactone (fold less potent)” value ([1]; Suc-Leu-Leu-Val-Tyr-AMC) was “approximately 10 fold”, the “inhibition of proteasome activity at the highest concentration tested” value ([1]; highest concentration tested) was at most 35% and the “effect on cleavage of Ala-AMC” value [2] was “without effect”. The “effect on cleavage of Leu-AMC” value [3] was “without effect”.
